Data as given in patent publication US5468771A, “Cholesterol lowering compound” (Merck & Co., Inc., priority 1994, dated 1995).

Biological target: T1, squalene synthetase (Homo sapiens, UniProt P37268)
T1 construct: The HepG2 enzyme preparation was centrifuged at 34,000 rpm to separate the cytosol and microsomal enzymes; host or cells: HepG2 (human hepatoblastoma), resuspended 34,000 rpm pellet of sonicated cells
T1 sequence (P37268 1-417): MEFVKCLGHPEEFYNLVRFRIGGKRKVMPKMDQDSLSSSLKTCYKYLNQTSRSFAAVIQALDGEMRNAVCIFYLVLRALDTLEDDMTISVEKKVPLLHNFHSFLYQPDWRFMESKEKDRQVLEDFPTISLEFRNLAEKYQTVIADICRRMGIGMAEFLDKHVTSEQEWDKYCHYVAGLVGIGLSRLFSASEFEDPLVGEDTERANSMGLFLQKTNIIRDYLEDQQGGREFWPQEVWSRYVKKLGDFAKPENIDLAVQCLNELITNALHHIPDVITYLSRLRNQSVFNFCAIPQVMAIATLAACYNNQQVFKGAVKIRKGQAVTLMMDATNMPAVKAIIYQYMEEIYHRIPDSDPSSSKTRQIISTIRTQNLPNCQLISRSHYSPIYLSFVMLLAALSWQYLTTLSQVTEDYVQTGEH
Test: Squalene synthetase assay (in vitro, human HepG2 cell enzyme, 3H-farnesyl pyrophosphate substrate)
Format: biochemical
Settings: 30° C., 20 minutes
Procedure: The intrinsic squalene synthetase inhibitory activity of the compound of this invention was measured by the ill vitro protocol described below:
PREPARATION OF HUMAN HepG2 cell ENZYME
1. SOURCE: HEPG2 CELL LINE(Liver, hepatoblastoma, Human) ATCC No. HB 8065
2. CELL GROWTH AND MAINTENANCE
Culture Medium: Minimum essential medium (MEM) with non-essential amino acids, sodium pyruvate, and 10% fetal bovine serum. The medium was changed twice weekly. […] The growth medium is prepared as listed below. […]
Subculture Procedure: Remove medium, wash with PBS, add fresh trypsin (0.25%)-EDTA (0.02%) with Hank's Balanced Salt solution and let flask stand for a minute and remove the trypsin solution . Incubate flask at 37° C. until cells detached. Add fresh medium, disperse and dispense cells into new flasks. Subcultivation ratio: 1:6.
PREPARATION of Delipidated Serum: Fetal calf serum(100 ml) and CAB-O-Sil (2 grams) stir overnight at 4° C. and centrifuge at 16,000 rpm for 5 hrs. […]
For each reaction, 55 μl of buffer mixture was taken with 5 μl of an inhibitor solution in MeOH and 10 μl of diluted enzyme (1 to 1536 as described in the enzyme preparation, the final protein concentration of enzyme in the assay is 1.2 μg per ml.). […] 400 μl of heptane layer was then removed into a […] and mixed with 2.5 ml of scintillation fluid and the radioactivity was determined by liquid scintillation counting. […]

C=C(CC[C@]12O[C@H](C(=O)O)[C@@](O)(C(=O)O)[C@](C(=O)O)(O1)[C@H](OC(=O)/C=C/C(C)CC(C)C(C)O)[C@H]2O)[C@@H](OC(C)=O)C(C)Cc1ccccc1 (stereo partly drawn) [compound of this invention, (1S,3S,4S,5S,6R,7R)-1-[(4S)-acetoxy-3-methylene-5-methyl-6-phenyl]hexyl-4,6,7-trihydroxy-6-0-(4,6-dimethyl-7-hydroxy-2-octenoyl)-2,8-dioxabicyclo [3.2.1]octane-3,4,5-tricarboxylic acid]
IC50 (3 μM 3H-farnesyl pyrophosphate, estimated, with a dose related inhibition, read-out: IC50 against squalene synthetase): ~0.091 nM | inhibition at 0.0018 µM (tested at a concentration of 1.8 nM): 99%
